Assay results: patent publication US20250072433A1, “ORGANIC CONCENTRATED VITAMINE-PHYTOHORMONE WITH NATURAL BIO-STIMULANT PROPERTIES AS FERTILIZER CONCENTRATED EXTRACT OF DUCKWEED ARACEA FAMILY OF PLANTS FORMALY KNOWN AS LEMNACEAE SINGLE OR COMBINED SPECIES THAT CAN INCLUDE ALSO COMPOUNDED MULTIPLE FORMULATED AQUATIC PLANTS EXTRACTS TO NATURALY …” (priority 2021, published 2025)
“Also recorded” adds a separate entry of the source.

Test system: mung bean hypocotyl cuttings
Assay: Comparative mung bean bioassay: rooting response of stem cuttings versus seaweed products and IAA/IBA standards (Example 6)
Format: in vivo
Conditions: for pH: 30 mg/L; for stem growth, length: 1% dilution; for concentration with the higher number of roots developed: range 0 to 30 mg/L
From the text: A composition comparative study further embodiment described in detail in Example 6. to determine the concertation of Auxins in relation to Standard indole-3-Butiric acid (IBA) and indole-3-acetic (IAA) embodied in the examples Duckweed Biotech product is a combination of three aquatic plants of the Aracea family, which is compared with commercial seaweed products: Product (1) “K” and Product (2) “M”. The dilutions were made from the liquid concentrated products and the Duckweed Biotech from a natural concentrate extraction of three duckweed species. The equivalent phytohormone activity of IAA and IBA was established by the number of roots to the corresponding treatment dilution and interpolating the number of roots to the corresponding hormone concentration to obtain the total activity in mg/L of the commercial product.
Two commercial giant brown kelp seaweed products, Product (1) “K” made of Ecklonia maxima and Product (2) “M” made of Ascophyllum nodosum were compared with the Duckweed Biotech Product “D” made of a combination of Duckweed aquatic plants of the Araceae family of plants formally known as Lemnaceae family of plants. For the test, a series of dilutions from 0% to 50% were made from the concentrated commercial products.
The preparation of standards was performed using a concentration range of 0, 1, 2, 5, 10, 15, 20 and 30 mg/L of indole-3-butyric acid (IBA) and indole-3-acetic acid (IAA) as shown in Table 20. A dose growth response curve for rooting ability was produced using these auxins.
The mung bean bioassay was used to evaluate plant growth and rooting stimulation response of three products: Duckweed Biotech Product “D”, Product (1) “K” and Product (2) “M”.
The seeds of mung bean seeds were rinse thoroughly with water and soak for […]. in DI water. 2. The seeds were planted in microgreen trays for germination process at 26° C. After 8 days, uniform hypocotyl cuttings with 8 cm length with 2 primary leaves and without cotyledon were transferred to the treatment vials. The cuttings are rinsed with DI water and then soak in 20 mL treatment test solutions for 8 hr. The treatment solutions include Duckweed Biotech Product “D”, Product (1) “K”, Product (2) “M”, indole-3-acetic acid (IAA), and indole-3-butyric acid (IBA). The treatments are follows: • IBA & IAA concentrations: 0, 1, 2, 5, 10, 15, 20 and 30 mg/L • Duckweed Biotech Product “D” Conc.: 0, 0.5, 1, 2, 5, 10, 20 and 50% • Product (1) “K” Conc.: 0, 0.5, 1, 2, 5, 10, 20 and 50% • Product (2) “M” Conc.: 0, 0.5, 1, 2, 5, 10, 20 and 50%
3 After the treatments, the seedling base cuttings were rinsed with DI water and transferred to clean vials with glass beads containing 60 mL of DI water for 8 days. Two cuttings were placed in each vial and two vials were used for each treatment. The vials are left at 28±3° C. ambient air temperature and under lighting at 135 μmol photons m^−2 s^−1 in a 16-h day/8-h night cycle. The humidity is maintained over 60%.
4. After 8 days, the number of roots per hypocotyl was recorded. The plant quality and stem length were also evaluated. The data collected was organized and analyzed using Microsoft Excel
The plant growth and rooting response of each treatment were recorded after 8 days. The rooting response was evaluated based on number of roots developed per cutting. The average number of roots of three cuttings per treatment was used to determine the effectiveness of the treatments. Plant quality and stem length were also recorded. […] The plants with higher rooting response were found at 2% with duckweed treatment with 67 roots. Whereas Product (1) “K” at 20% dilution stimulated root production with 46 roots and Product (2) “M” at 2% dilution with 32 roots. A decline of rooting stimulation was found at 50% dilution for all evaluated products (FIG. 35 & FIG. 36) that coincides with previous research literature for brown kelp extract products. […]

## O=C(O)Cc1c[nH]c2ccccc12 [IAA, indole-3-acetic acid]
  pH: 6.92
  stem growth, length: 15 cm
  concentration with the higher number of roots developed: 30 mg/L

## O=C(O)CCCc1c[nH]c2ccccc12 [IBA, indole-3-butyric acid]
  pH: 6.53
  stem growth, length: 15 cm
  concentration with the higher number of roots developed: 30 mg/L
In vivo
  root formation, IBA compared with IAA: stimulated more roots in all concentrated treatments than IAA; also recorded: more effective than indol-3-acetic acid (IAA) in root development
